Test results published in the NIST ThermoML archive (doi:10.1021/je049609w).

How the values were obtained:
[1] = xn = mol fraction of the nth substance listed; settings: 101 kPa, Liquid
[2] = refractive index (Na D-line) (dimensionless); xn = mol fraction of the nth substance listed; settings: 101 kPa, Liquid

CCCCO [butan-1-ol] + C1COCCO1
x2 = 0
Settings	mass density, 298.15 K [kg/m3]	mass density, 303.15 K [kg/m3]	mass density, 308.15 K [kg/m3]	refractive index, 298.15 K	refractive index, 303.15 K	refractive index, 308.15 K	speed of sound, 298.15 K [m/s]	viscosity, 298.15 K [mPa·s]	viscosity, 303.15 K [mPa·s]	viscosity, 308.15 K [mPa·s]
[1]	805.8	802	798	–	–	–	1237	2.564	2.245	1.981
[2]	–	–	–	1.3983	1.3955	1.3937	–	–	–	–

CC(=O)N(C)C [N,N-dimethylethanamide] + C1COCCO1
Settings	mass density, 298.15 K [kg/m3]	mass density, 303.15 K [kg/m3]	mass density, 308.15 K [kg/m3]	refractive index, 298.15 K	refractive index, 303.15 K	refractive index, 308.15 K	speed of sound, 298.15 K [m/s]	viscosity, 298.15 K [mPa·s]	viscosity, 303.15 K [mPa·s]	viscosity, 308.15 K [mPa·s]
[1], x2 = 0	946.8	942.1	937.5	–	–	–	1458	1.261	1.154	1.047
[1], x2 = 0.1121	954.8	950.1	945.4	–	–	–	1447	1.255	1.149	1.043
[1], x2 = 0.2162	962.4	957.6	952.9	–	–	–	1436	1.248	1.144	1.039
[1], x2 = 0.3203	970	965.2	960.3	–	–	–	1424	1.242	1.138	1.035
[1], x2 = 0.4222	977.9	972.9	968	–	–	–	1413	1.235	1.133	1.031
[1], x2 = 0.5242	985.9	980.9	975.9	–	–	–	1401	1.228	1.128	1.027
[1], x2 = 0.6219	993.9	988.8	983.6	–	–	–	1390	1.222	1.123	1.023
[1], x2 = 0.7198	1002.1	996.8	991.6	–	–	–	1379	1.215	1.117	1.019
[1], x2 = 0.8157	1010.5	1005.3	999.8	–	–	–	1367	1.209	1.105	1.016
[1], x2 = 0.9116	1019.2	1013.7	1008.2	–	–	–	1356	1.202	1.099	1.012
[2], x2 = 0	–	–	–	1.4363	1.4342	1.432	–	–	–	–
[2], x2 = 0.1121	–	–	–	1.4346	1.4324	1.4302	–	–	–	–
[2], x2 = 0.2162	–	–	–	1.4328	1.4306	1.4284	–	–	–	–
[2], x2 = 0.3203	–	–	–	1.431	1.4287	1.4264	–	–	–	–
[2], x2 = 0.4222	–	–	–	1.4293	1.4269	1.4246	–	–	–	–
[2], x2 = 0.5242	–	–	–	1.4275	1.4252	1.4228	–	–	–	–
[2], x2 = 0.6219	–	–	–	1.4259	1.4234	1.421	–	–	–	–
[2], x2 = 0.7198	–	–	–	1.4242	1.4226	1.4191	–	–	–	–
[2], x2 = 0.8157	–	–	–	1.4226	1.421	1.4174	–	–	–	–
[2], x2 = 0.9116	–	–	–	1.421	1.4195	1.4157	–	–	–	–

CCOC(C)=O [ethyl acetate] + C1COCCO1
x2 = 0
Settings	mass density, 298.15 K [kg/m3]	mass density, 303.15 K [kg/m3]	mass density, 308.15 K [kg/m3]	refractive index, 298.15 K	refractive index, 303.15 K	refractive index, 308.15 K	speed of sound, 298.15 K [m/s]	viscosity, 298.15 K [mPa·s]	viscosity, 303.15 K [mPa·s]	viscosity, 308.15 K [mPa·s]
[1]	894.2	887.9	881.6	–	–	–	1155	0.438	0.414	0.392
[2]	–	–	–	1.3713	1.3673	1.3631	–	–	–	–
